Reference: patent US20260021167A1, “COMPOSITIONS AND METHODS FOR TREATING OR PREVENTING NEURODEGENERATIVE DISEASES” (Delaware State University, priority 2022, published 2026)

How the values were obtained:
N27 dopaminergic cells = assay: Screening of SENP-1 inhibitors (LDH, MTT, ROS, Thioflavin-T) in PFF-induced PD model in vitro; format: cell-based, rat; conditions: N27 dopaminergic cells after exposure to PFF for 24 hrs
From the text: Cell Viability Assay. The MTT assay is a colorimetric assay that is based on the conversion of water-soluble MTT (3-(4,5-dimethylthiazol-2-yl)-2,5-diphenyltetrazolium bromide) into formazan crystal by mitochondrial dehydrogenase enzymes, soluble in 100% DMSO. The resulting solution is purple in color, and the color intensity is proportional to the viable cells for each well in a 96-well plate. A variety of SENP-1 inhibitors, such as SUMO-2 aldehyde, Momordin lc, streptonigrin, hinokiflavone, oleanolic acid and siRNA of SENP-1, were treated in N27 cells after PFF (1 μg/ml) exposure for 24 h. After adding 5 mM MTT dye to cells, the color intensity in MTT assays was measured using a spectrophotometer (SpectraMax M5e, Molecular devices, Dover, USA), at 570 nm with a reference wavelength of 630 nm. The cells were incubated with the MTT reagent (ab211091, Abcam) at 37° C. for 3 h, followed by solubilizing the formazan crystals in solution.
Cytotoxicity Assay. The lactate dehydrogenase (LDH) is a cytosolic enzyme that is released into the media during cellular stress and increased levels of cytotoxicity. The cytotoxicity assay was measured using reagents from the Pierce LDH Cytotoxicity Assay Kit (88954, Thermo). For the assay, 50 μL of media from each well after PFF exposure, followed by SENP-1 treatment, was put into wells of a new 96-well plate. The LDH reagents were prepared according to the protocol provided, and 50 μL of the LDH reagent was mixed into each well. The total 100 μL of media containing LDH and its reagent were incubated at 37° C. for 30 min, followed by the application of a stop solution. The mixture was analyzed using a spectrophotometer (SpectraMax M5e, Molecular devices) at 490 nm with a reference wavelength of 680 nm.
ROS Levels and Thioflavin-T Assessment. The reactive oxygen species (ROS) is a released byproduct during oxidative stress. On the other hand, thioflavin-T is an assay used to understand the level of protein aggregation that can be detrimental to cell survival. In order to assess the level of oxidative stress, all the SENP-1 inhibitors treated cells were incubated in media containing 5 μg/mL of the ROS reagent CellROX deep red reagent (C10422, Thermo Fisher Scientific) and 25 μg/mL of thioflavin-T reagent (CAS: 2390-54-7, Acros Organics) at 37° C. for 30 min. The cells were then washed 3 times with warm phosphate-buffered saline (PBS) without Ca^2+ or Mg^2+ (137 mM NaCl, 2.7 mM KCl, 4.3 mM Na2HPO4, and 1.47 mM KH2PO4), and several images from each well were collected using EVOS FL Cell Imaging Systems (Invitrogen, MA, USA). […] The intensity of red fluorescence corresponding to ROS levels and green labels corresponding to protein aggregation was analyzed by blinded raters using ImageJ. […]

[1] = test system: N27 dopaminergic cell line; assay: In vitro cell death induced by MPP+ or PFF; format: cell-based, rat; conditions: MPP+ or PFF-mediated toxic conditions
PFF-injected old mice = assay: Hindlimb clasping in PFF-injected mice; format: in vivo, mouse; conditions: 10 and/or 50 mg/kg oral, vs PFF only
Method: A mouse model of Parkinson's disease is C57BL/6 male or female mice (50% each) injected with 5 μg of mouse PFF at 12 months old, followed by a treatment below for 6-7 weeks: • 1) without PFF injection, followed by vehicle (control, n=7); • 2) PFF injection, followed by vehicle (PFF only: control, n=8); • 3) PFF injection, followed by daily 10 mg/kg Momordin gavage (n=7-8); • 4) PFF injection, followed by daily 50 mg/kg Momordin gavage (n=7-8).
Hindlimb Clasping. This is often characterized by bat-like posture when mice are picked up by the tail, indicating they are experiencing severe motor deficits. A mouse was placed on a horizontal plane and held at 2 cm from the tail tip, then slowly to the height of 10 cm from the surface. A video was recorded for 15 sec for each trial. A total of 3 trials were taken over 3 consecutive days and analyzed for the time in hindlimb clasping by a blinded rater.

CC1(C)CC[C@]2(C(=O)O)CC[C@]3(C)C(=CC[C@@H]4[C@@]5(C)CC[C@H](O[C@@H]6O[C@H](C(=O)O)[C@@H](O)[C@H](O[C@@H]7OC[C@@H](O)[C@H](O)[C@H]7O)[C@H]6O)C(C)(C)[C@@H]5CC[C@]43C)[C@@H]2C1 [Momordin lc]
efficacy in preventing protein aggregation-mediated damage and reversing PFF-induced damage (LDH, MTT, ROS, Thioflavin-T assays) (N27 dopaminergic cells): clearly efficacious | protection against in vitro cell death [1]: protect against in vitro cell death | hindlimb clasping (PFF-injected old mice): reduces hindlimb clasping
